Experimental data reported in article PMC5668434, “Modulation of telomere protection by the PI3K/AKT pathway” (Nature Communications, 2017).

Tests used:
CHA-9.3 cell line = test: Cytotoxicity in CHA-9.3 cells; assay type: cell-based, mouse; settings: 10 μM
PI3Kδ = settings: reported in literature; cited from earlier work
PI3Kα = settings: reported in literature; cited from earlier work
PI3Kβ = settings: reported in literature; cited from earlier work
mTOR 1 = settings: reported in literature; cited from earlier work
PI3Kγ = settings: reported in literature; cited from earlier work
mTOR 2 = settings: reported in literature; cited from earlier work
Akt1 = test system: Akt1; design: method as in earlier work; settings: reported in literature; read-out: Reported data IC50 Akt 1; cited from earlier work
PI3K (p110α) = biological target: T1, PI3K (p110α) (Homo sapiens, UniProt P42336); test: PI3K alpha biochemical assay (ADP Hunter Plus); settings: internal data; read-out: PI3Kα IC50
T1 construct: purchased Cama Biosciences (sic; Carna Biosciences) #07CBS-0402A
T1 sequence (P42336 whole entry): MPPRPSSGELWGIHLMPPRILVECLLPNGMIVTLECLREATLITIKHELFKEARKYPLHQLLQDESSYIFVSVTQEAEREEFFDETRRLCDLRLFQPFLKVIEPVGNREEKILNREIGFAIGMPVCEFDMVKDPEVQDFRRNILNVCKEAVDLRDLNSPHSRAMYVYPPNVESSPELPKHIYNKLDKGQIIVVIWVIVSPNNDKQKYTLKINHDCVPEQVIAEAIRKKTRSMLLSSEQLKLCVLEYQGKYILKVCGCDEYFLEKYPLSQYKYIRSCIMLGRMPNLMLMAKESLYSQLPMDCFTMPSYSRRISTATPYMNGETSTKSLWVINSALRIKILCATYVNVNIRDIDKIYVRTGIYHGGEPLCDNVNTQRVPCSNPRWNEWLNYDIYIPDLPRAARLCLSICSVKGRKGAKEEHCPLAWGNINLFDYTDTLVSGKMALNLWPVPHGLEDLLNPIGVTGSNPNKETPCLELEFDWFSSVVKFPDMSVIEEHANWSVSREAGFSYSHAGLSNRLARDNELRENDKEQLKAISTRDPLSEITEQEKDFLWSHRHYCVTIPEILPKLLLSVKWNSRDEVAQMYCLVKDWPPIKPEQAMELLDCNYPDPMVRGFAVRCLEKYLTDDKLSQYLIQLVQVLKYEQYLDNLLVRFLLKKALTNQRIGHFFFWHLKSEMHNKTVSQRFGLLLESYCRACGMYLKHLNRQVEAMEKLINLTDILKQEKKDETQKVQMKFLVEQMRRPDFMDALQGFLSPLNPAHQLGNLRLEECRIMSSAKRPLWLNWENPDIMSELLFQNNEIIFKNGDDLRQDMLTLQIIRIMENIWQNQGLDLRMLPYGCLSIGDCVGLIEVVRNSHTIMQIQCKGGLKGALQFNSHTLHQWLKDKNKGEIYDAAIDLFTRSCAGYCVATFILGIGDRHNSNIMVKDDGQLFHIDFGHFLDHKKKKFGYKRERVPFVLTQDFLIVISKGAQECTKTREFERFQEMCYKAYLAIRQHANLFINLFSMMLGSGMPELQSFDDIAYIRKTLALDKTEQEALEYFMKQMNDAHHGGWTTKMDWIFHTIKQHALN
T1 sequence (P27986 whole entry partner): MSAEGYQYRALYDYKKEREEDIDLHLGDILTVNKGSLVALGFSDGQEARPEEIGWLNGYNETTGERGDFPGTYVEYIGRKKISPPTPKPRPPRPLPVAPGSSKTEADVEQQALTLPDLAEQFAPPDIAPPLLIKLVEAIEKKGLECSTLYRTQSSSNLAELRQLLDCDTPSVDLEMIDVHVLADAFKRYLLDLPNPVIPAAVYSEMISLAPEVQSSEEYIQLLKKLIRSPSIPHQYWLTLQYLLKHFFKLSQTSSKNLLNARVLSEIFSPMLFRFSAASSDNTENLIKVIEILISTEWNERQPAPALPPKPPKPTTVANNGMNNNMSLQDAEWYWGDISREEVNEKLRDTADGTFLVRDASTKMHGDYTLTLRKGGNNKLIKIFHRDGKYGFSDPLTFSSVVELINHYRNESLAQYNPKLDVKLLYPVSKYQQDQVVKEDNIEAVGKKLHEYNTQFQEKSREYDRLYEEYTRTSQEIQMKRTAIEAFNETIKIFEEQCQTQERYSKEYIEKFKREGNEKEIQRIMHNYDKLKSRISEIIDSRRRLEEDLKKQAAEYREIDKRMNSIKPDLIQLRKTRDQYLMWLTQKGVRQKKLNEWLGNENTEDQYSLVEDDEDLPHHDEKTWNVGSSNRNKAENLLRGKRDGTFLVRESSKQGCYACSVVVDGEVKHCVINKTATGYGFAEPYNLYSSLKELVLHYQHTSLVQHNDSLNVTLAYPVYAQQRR

[1] = test system: TRF1 protein in p53−/− MEFs nuclear extracts; test: Western blot of nuclear TRF1 in p53−/− MEFs; assay type: cell-based, mouse; settings: 10 μM
Description: (§1) Blots were incubated with the primary antibodies anti-TRF1 1:500 (home-made monoclonal Rat, CNIO; TRF-78, ABCAM, ab10579) and with anti-SMC1 1:2000 (Bethyl Laboratories #A300-055A) as loading control. For nuclear protein preparation, the Nuclear/Cytosol Fractionation Kit (K266-100, BioVision) was used according to the manufactures protocol.

Akt3 = test system: Akt3; design: method as in earlier work; settings: reported in literature; read-out: Reported data IC50 Akt 3; cited from earlier work
CHA 9-3 cells = test: Multitelomeric signals (MTS) by Q-FISH on metaphase spreads; assay type: cell-based, mouse; settings: 10 μM, 24 h
Excerpt: Trf1 abrogation is known to lead to a persistent DDR at telomeres, and to induction of telomere-induced chromosomal aberrations[28]–[30]. Trf1 genetic deletion induces the so-called multitelomeric signals (MTS), a chromosomal aberration related to increased telomere fragility during DNA replication, [29]. […] To this end, we treated CHA 9-3 cells with either DMSO, the AKT inhibitor MK-2206 (AKTi) and the PI3K inhibitors ETP-47037 or ETP-47228. For detection of MTS, we performed quantitative fluorescence in situ hybridization (Q-FISH) analysis on metaphase spreads using a telomeric probe to visualize telomeres (“Methods” section). MTS are visualized by presenting a multi-dot pattern at chromosome ends in contrast to normal telomeres that show a single dot at each chromosome end.
Lung cancer-derived cell line (CHA-9-3) and immortalized P110α ^lox/lox MEFS were treated either with 10 µM of ETP-47037, ETP-47228, or AKTi (MK-2206) for 24 h. Q-FISH in metaphase spreads was performed as described above, but increasing the concentration of formamide in both the incubation and the washes to 70%.

human AKT1 = biological target: T2, human AKT1 (Homo sapiens, UniProt P31749); test: In vitro TRF1 phosphorylation by AKT1; assay type: biochemical; settings: MK-2206 25 μM
T2 construct: purchased ProQinase 1379-0000-2
T2 sequence (P31749 whole entry): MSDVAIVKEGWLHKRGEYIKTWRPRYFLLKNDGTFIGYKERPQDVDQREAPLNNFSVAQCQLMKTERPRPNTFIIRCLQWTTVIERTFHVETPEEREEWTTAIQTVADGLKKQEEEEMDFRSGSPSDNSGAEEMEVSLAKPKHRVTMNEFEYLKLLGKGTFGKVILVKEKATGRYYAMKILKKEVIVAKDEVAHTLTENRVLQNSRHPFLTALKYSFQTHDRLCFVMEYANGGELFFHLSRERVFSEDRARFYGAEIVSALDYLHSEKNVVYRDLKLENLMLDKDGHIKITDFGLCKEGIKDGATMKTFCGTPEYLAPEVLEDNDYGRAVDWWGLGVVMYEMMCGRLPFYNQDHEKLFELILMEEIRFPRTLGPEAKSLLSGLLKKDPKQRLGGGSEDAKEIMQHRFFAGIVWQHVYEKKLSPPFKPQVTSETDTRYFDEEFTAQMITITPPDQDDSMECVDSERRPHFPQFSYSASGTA
Description: To address whether TRF1 is a direct substrate of AKT, affinity purified GST-TRF1 was incubated with purified human AKT1 (1379-0000-2, ProQinase) in the presence of γ-^32ATP. As positive control, a GSK3 (14-27) peptide (0349-0000-5, prokinase) was also used as substrate. AKT1 yielded a TRF1 phosphorylation signal after incubation with purified GST-TRF1 during 1 h, which was decreased in the presence of AKT inhibitor (see asterisk in Fig. 5a, left). AKT1 also yielded a phosphorylation signal in the positive control peptide GSK3 (14-27) that was reduced in the presence of AKT inhibitor (Fig. 5a, right). An autophospholyration activity of AKT1 was detected after 1 h of incubation and this activity was reduced in the presence of AKT inhibitor (Fig. 5a). Together, these findings indicate that TRF1 is a direct substrate of AKT1.
One μg of purified GST-TRF1 was incubated with 0.2 μg of human GST-AKT1 (1379-0000-2, ProQinase) with or without AKT inhibitor (MK-2206, 25 μM) in kinase buffer (50 mM Hepes pH 7.9, 100 μM ATP, 10 mM MgCl2, 5 mM DTT) containing 5 μCi [γ-^32-P]ATP in a total volume of 25 μl. The peptide RBER-GSK3(14-27) (0349-0000-5, ProQinase) (100 ng) was used as positive control. The reactions were performed at 30 °C for […] and stopped by addition of Lamely buffer (6×). Samples were resolved in 4–12% SDS-PAGE gels and subjected to autoradiography.

[2] = test system: p-AKT S473 in CHA-9.3 mouse lung cancer cell line; test: Western blot of AKT phosphorylation at Ser473 in CHA-9.3 cells; assay type: cell-based; settings: 10 μM (GSK-2126458 1.0 μM), 24 h
Description: These new chemical probes were prepared by replacement of a single key oxygen atom from the morpholine moiety by a methylene group, generating the piperidine derivatives ETP-51259 and ETP-50952 (Fig. 1a). To assess their PI3K cellular activity, we measured phosphorylation of residue Ser473 in AKT (p-AKT S473), a PI3K downstream target[61]–[63], by western blot analysis. To this end, we used the CHA-9.3 mouse lung cancer cell line previously generated by us[39]. […] Of note, the inhibitory activity of ETP-47037 was more prolonged than that of ETP-47228. Thus, ETP-47037 mediated p-AKT S473 inhibition was maintained during the 24-hour treatment while the ETP-47228 mediated inhibition decreased 35% after 24 h as compared to 1-h treatment but still was able to inhibit the pathway above 50% (Fig. 1c).
For detection of AKT, PRAS40 (T246) and pS6 in CHA9.3 cells, untreated control (DMSO) or treated with the indicated inhibitors, were lysed in RIPA buffer supplemented with 100 mM pefablock (Roche Diagnostics) and protease inhibitor cocktail (Roche Molecular Biochemicals). Proteins were resolved on 10% SDS-PAGE, and transferred to nitrocellulose membrane (Amersham^TM Protan^TM 0.2 µm nNC). Membranes were incubated with antibodies against phospho-AKT (Ser473), AKT, phospo-S6 (Ser 235/236), and S6Ribosomal from Cell Signaling, phospo-PRAS40 (Thr246) from BIOSURCE and anti α-tubulin form Sigma, overnight at 4 °C. After washing, blots were incubated with secondary antibody: Alexa Fluor 680 goat anti-rabbit IgG (Invitrogen) or anti-mouse IgG DyLight 800 conjugated (Thermo Scientific), and visualized using an Odyssey infrared imaging system (Li-Cor Biosciences).

mTOR (FRAP1) = biological target: T3, mTOR (FRAP1) (Homo sapiens, UniProt P42345); test: mTOR biochemical assay (LanthaScreen); settings: internal data
T3 construct: purchased ThermoFisher PV4753
T3 sequence (P42345 1360-2549 limits assumed): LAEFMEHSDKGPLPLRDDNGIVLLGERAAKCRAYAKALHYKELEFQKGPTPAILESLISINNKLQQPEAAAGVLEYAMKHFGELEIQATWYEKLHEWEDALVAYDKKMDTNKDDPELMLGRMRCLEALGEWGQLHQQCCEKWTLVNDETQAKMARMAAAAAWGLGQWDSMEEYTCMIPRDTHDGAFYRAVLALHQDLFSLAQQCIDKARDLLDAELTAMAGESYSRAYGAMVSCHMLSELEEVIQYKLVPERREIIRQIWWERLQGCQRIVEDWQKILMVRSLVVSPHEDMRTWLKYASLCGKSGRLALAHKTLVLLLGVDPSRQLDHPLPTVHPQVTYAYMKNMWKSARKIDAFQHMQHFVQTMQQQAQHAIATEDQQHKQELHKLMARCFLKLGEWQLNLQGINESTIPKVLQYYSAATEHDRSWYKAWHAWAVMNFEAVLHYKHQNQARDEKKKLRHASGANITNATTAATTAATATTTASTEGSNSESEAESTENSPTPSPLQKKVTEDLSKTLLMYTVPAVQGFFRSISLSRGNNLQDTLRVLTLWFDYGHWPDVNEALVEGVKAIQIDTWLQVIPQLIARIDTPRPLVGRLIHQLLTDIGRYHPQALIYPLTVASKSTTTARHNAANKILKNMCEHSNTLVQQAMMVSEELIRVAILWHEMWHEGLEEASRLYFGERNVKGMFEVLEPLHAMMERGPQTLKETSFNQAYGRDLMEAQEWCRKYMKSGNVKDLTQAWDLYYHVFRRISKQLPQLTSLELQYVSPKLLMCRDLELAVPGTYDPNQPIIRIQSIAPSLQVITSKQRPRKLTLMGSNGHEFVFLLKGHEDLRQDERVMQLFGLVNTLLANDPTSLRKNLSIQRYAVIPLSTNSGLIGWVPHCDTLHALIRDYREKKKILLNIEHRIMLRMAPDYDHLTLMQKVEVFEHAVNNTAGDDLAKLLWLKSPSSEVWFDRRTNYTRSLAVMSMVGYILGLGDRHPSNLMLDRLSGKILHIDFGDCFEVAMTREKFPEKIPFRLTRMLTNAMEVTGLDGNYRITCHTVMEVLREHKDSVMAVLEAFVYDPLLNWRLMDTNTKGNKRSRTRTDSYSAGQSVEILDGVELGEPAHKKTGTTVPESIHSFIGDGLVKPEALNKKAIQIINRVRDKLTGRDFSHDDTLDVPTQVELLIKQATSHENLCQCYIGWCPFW

[3] = test system: TRF1 protein in CHA 9-3 nuclear extracts; test: Western blot of nuclear TRF1 in CHA 9-3 cells; assay type: cell-based, mouse; settings: 10 μM
Description: as §1

[4] = test system: TRF1 mRNA in CHA 9-3 lung cancer cells; test: TRF1 mRNA by qPCR; assay type: cell-based, mouse; settings: 10 μM, 24 h
[5] = test system: TRF1 foci in p53−/− mouse embryo fibroblasts (MEF); test: TRF1 foci immunofluorescence in p53−/− MEFs; assay type: cell-based; settings: 10 μM, 24 h
Description: We then checked whether PI3Kα/AKT inhibition also leads to decreased TRF1 foci in an additional cell type to CHA-9.3 cells. Thus, we used p53 ^−/− mouse embryo fibroblasts (MEF). We treated these MEFs either with the AKT inhibitor MK-2206 or with ETP-47037 at 10 μM concentration for 24 h and analyzed TRF1 foci by immunofluorescence.
(§2) TRF1 immunofluorescence of TRF1 was performed in lung tumor-derived cell line (CHA9.3) and in MEFs[39]. A rat monoclonal antibody against mouse TRF1 developed by the Monoclonal antibody unit at CNIO was used to detect endogenous TRF1 (1:500). GFP-TRF1 fluorescence was directly measured in cells fixed in paraformaldehyde. For quantification of TRF1 foci intensity, pictures of fixed cells were automatically acquired from each well by the Opera HCS system (Perkin Elmer). Sixty images of random fields per well, with a 40× magnification lens, were taken under non-saturating conditions. At least 1 × 10^3 cells were analyzed for each well. Briefly, images were segmented using the DAPI staining to generate masks matching cell nuclei from which-TRF1 foci were analyzed.

Akt2 = test system: Akt2; design: method as in earlier work; settings: reported in literature; read-out: Reported data IC50 Akt 2; cited from earlier work
[6] = test system: TRF1 foci in CHA-9.3 mouse lung tumor cell line; test: TRF1 foci immunofluorescence in CHA-9.3 cells; assay type: cell-based
Description: as §2

Question: With `COc1ncc(-c2ccc3nccc(-c4ccnnc4)c3c2)cc1NS(=O)(=O)c1ccc(F)cc1F` [GSK-2126458] as the compound, how does the Cytotoxicity (CHA-9.3 cell line) read?
Answer: high cytotoxicity

Question: What about the IC50 (PI3Kα) of the same compound?
Answer: […]

Question: And the IC50 (mTOR 1)?
Answer: 0.18 nM

Question: And the IC50 (mTOR 2)?
Answer: 0.3 nM

Question: With `NC1(c2ccc(-c3nc4ccn5c(=O)[nH]nc5c4cc3-c3ccccc3)cc2)CCC1` [MK-2206, reference compound] as the compound, how does the IC50 (Akt1) read?
Answer: 8 nM

Question: And the IC50 (PI3K (p110α))?
Answer: 34.3 nM

Question: What about the “Total nuclear TRF1 levels compared to DMSO” value [1] of the same compound?
Answer: decreased

Question: And the IC50 (Akt3)?
Answer: 65 nM

Question: What about the “Frequency of MTS events per metaphase compared to DMSO” value (CHA 9-3 cells) of the same compound?
Answer: significantly increased

Question: And the “Autophosphorylation activity of AKT1” value (human AKT1; 1 h)?
Answer: reduced

Question: And the “Phosphorylation signal of control peptide GSK3 (14-27) by AKT1” value (human AKT1)?
Answer: reduced

Question: And the “TRF1 phosphorylation signal by AKT1” value (human AKT1; purified GST-TRF1, 1 h)?
Answer: decreased

Question: And the “Phosphorylation of AKT (p-AKT S473) (in words)” value [2]?
Answer: strong inhibition

Question: And the IC50 (mTOR (FRAP1))?
Answer: > 10000 nM

Question: And the “TRF1 protein levels in nuclear extracts” value [3]?
Answer: significantly decreased

Question: What about the “TRF1 mRNA levels” value [4] of the same compound?
Answer: None of the inhibitors significantly affected

Question: What about the “Reduction in TRF1 foci intensity” value [5] of the same compound?
Answer: 22%

Question: And the IC50 (Akt2)?
Answer: 12 nM

Question: What about the “Inhibition of TRF1 foci (in words)” value ([6]; 10 μM (GSK-2126458 1.0 μM), 24 h, CHA-9.3) of the same compound?
Answer: effectively inhibited TRF1 foci

Question: And the “TRF1 levels as compared to bortezomib/DMSO-treated control cells” value ([6]; 10 μM plus bortezomib 50 nM, CHA 9-3)?
Answer: significantly lower
